# Values of other authors in PMC8513935.
# Tests used:
# [1] = experimental, compiled by the authors from the literature (the ESI cites the sources)
# [2] = derived by the authors as gas->solvent minus gas->water (a hypothetical dry solvent; the ESI), not a two-phase measurement
"log K of transfer, gas to solvent ([1]; Hexadecane, 25 C)","log K of transfer, gas to solvent ([1]; Water, 25 C)",Compound,other results
5.72 log10 K,0.03 log10 K,CCCCCCc1ccccc1,"log K of transfer, gas to solvent ([1]; Methanol, 25 C): 5.23 log10 K; log K of transfer, water to solvent ([2]; Hexadecane, 25 C): 5.69 log10 K; log K of transfer, water to solvent ([2]; Methanol, 25 C): 5.2 log10 K"
4.58 log10 K,6.57 log10 K,CCCCNC(C)=O,
3.97 log10 K,4.91 log10 K,CN1CCCCC1=O,
4.6 log10 K,-1.87 log10 K,CCCCCC1CCCC1,
1.15 log10 K,-0.364 log10 K,CC(C)F,
3.14 log10 K,3 log10 K,CCCCCN,"log K of transfer, water to solvent ([2]; Hexadecane, 25 C): 0.139 log10 K"
3.24 log10 K,3.25 log10 K,CCCC(C)(C)O,
3.53 log10 K,0.65 log10 K,Fc1cccc(Cl)c1,
4.15 log10 K,2.78 log10 K,CCCCCCCN,"log K of transfer, water to solvent ([2]; Hexadecane, 25 C): 1.37 log10 K"
5.51 log10 K,-1.87 log10 K,C=CCCCCCCCCCC,
7.63 log10 K,2.26 log10 K,CCCCCCCCCCCCCCO,"log K of transfer, gas to solvent ([1]; Decan-1-ol, 25 C): 8.88 log10 K; log K of transfer, gas to solvent ([1]; Hexan-1-ol, 25 C): 8.94 log10 K; log K of transfer, gas to solvent ([1]; Propan-2-ol, 25 C): 9.05 log10 K"
3.17 log10 K,5.73 log10 K,CN(C)C=O,"log K of transfer, gas to solvent ([1]; Butanone, 25 C): 4.7 log10 K; log K of transfer, gas to solvent ([1]; Octan-1-ol, 25 C): 4.38 log10 K; log K of transfer, gas to solvent ([1]; Propanone, 25 C): 4.71 log10 K; log K of transfer, gas to solvent ([1]; Tetrahydrofuran, 25 C): 4.39 log10 K; log K of transfer, water to solvent ([2]; Acetone, 25 C): -1.02 log10 K; log K of transfer, water to solvent ([2]; Butanone, 25 C): -1.03 log10 K; log K of transfer, water to solvent ([2]; Hexadecane, 25 C): -2.56 log10 K; log K of transfer, water to solvent ([2]; Octan-1-ol(dry), 25 C): -1.35 log10 K; log K of transfer, water to solvent ([2]; Tetrahydrofuran, 25 C): -1.34 log10 K"
4.01 log10 K,0.94 log10 K,CCCSCCC,
4.45 log10 K,-2.27 log10 K,CCCCCCCC(C)C,
6.62 log10 K,2.44 log10 K,CCCCCCCCCCCCO,"log K of transfer, gas to solvent ([1]; Hexane, 25 C): 6.79 log10 K; log K of transfer, water to solvent ([2]; Hexadecane, 25 C): 4.18 log10 K; log K of transfer, water to solvent ([2]; Hexane, 25 C): 4.35 log10 K"
2.79 log10 K,-2.11 log10 K,CCCC(C)(C)C,
4.53 log10 K,-1.64 log10 K,C=CCCCCCCCC,
3.65 log10 K,2.9 log10 K,CCCCCCN,"log K of transfer, water to solvent ([2]; Hexadecane, 25 C): 0.755 log10 K"
4.31 log10 K,-1.32 log10 K,CCCC1CCCCC1,
5.62 log10 K,4.34 log10 K,CCCCN(C=O)CCCC,
4.21 log10 K,-0.21 log10 K,CCCCCCCCl,"log K of transfer, water to solvent ([2]; Hexadecane, 25 C): 4.42 log10 K"
7.13 log10 K,2.38 log10 K,CCCCCCCCCCCCCO,

"log K of transfer, gas to solvent ([1]; Hexadecane, 25 C)","log K of transfer, gas to solvent ([1]; Water, 25 C)",Compound,other results
4.62 log10 K,3.28 log10 K,CC(=O)C1CCCCC1,
2.04 log10 K,1.18 log10 K,CSC,"log K of transfer, gas to solvent ([1]; Hexane, 25 C): 2.17 log10 K"
3.55 log10 K,0.63 log10 K,Fc1ccc(Cl)cc1,
4.05 log10 K,3.07 log10 K,CC1CCCCC1=O (centres unmarked),
3.64 log10 K,-1.4 log10 K,C[C@H]1CC[C@H](C)CC1,
2.37 log10 K,1.1 log10 K,CCSC,"log K of transfer, water to solvent ([2]; Hexadecane, 25 C): 1.27 log10 K"
5.63 log10 K,5.15 log10 K,OC12CC3CC(CC(C3)C1)C2,"log K of transfer, water to solvent ([2]; Hexadecane, 25 C): 0.484 log10 K"
4.35 log10 K,2.38 log10 K,CCCCNCCCC,"log K of transfer, water to solvent ([2]; Hexadecane, 25 C): 1.97 log10 K"
9.16 log10 K,1.9 log10 K,CCCCCCCCCCCCCCCCCO,
4.98 log10 K,3.38 log10 K,O=C1CCCCCCC1,
8.14 log10 K,2.14 log10 K,CCCCCCCCCCCCCCCO,"log K of transfer, gas to solvent ([1]; Di-n-butyl ether, 25 C): 9.07 log10 K"
4.93 log10 K,0.12 log10 K,C1C2CC3CC1CC(C2)C3,
3.84 log10 K,4.58 log10 K,Oc1cccc(F)c1,"log K of transfer, water to solvent ([2]; Hexadecane, 25 C): -0.738 log10 K"
3.98 log10 K,3.46 log10 K,Cc1ccc(C)nc1,
2.14 log10 K,3.22 log10 K,CCCN,"log K of transfer, gas to solvent ([1]; 1,2-Dichloroethane, 25 C): 2.96 log10 K; log K of transfer, gas to solvent ([1]; Benzene, 25 C): 2.7 log10 K; log K of transfer, gas to solvent ([1]; CCl4, 25 C): 2.63 log10 K; log K of transfer, gas to solvent ([1]; Chlorobenzene, 25 C): 2.63 log10 K; log K of transfer, gas to solvent ([1]; Chloroform, 25 C): 3.47 log10 K; log K of transfer, gas to solvent ([1]; Cyclohexane, 25 C): 2.24 log10 K; log K of transfer, gas to solvent ([1]; Di-n-butyl ether, 25 C): 2.14 log10 K; log K of transfer, gas to solvent ([1]; Hexane, 25 C): 2.26 log10 K; log K of transfer, gas to solvent ([1]; Toluene, 25 C): 2.57 log10 K"
4.37 log10 K,3.42 log10 K,O=C1CCCCCC1,
3.96 log10 K,-2.15 log10 K,CCCCCCC(C)C,
4.6 log10 K,-1.28 log10 K,CC(C)(C)C1CCCCC1,
3.83 log10 K,5.74 log10 K,CN1CCCC1=O,
3.84 log10 K,6.72 log10 K,CCNC(C)=O,
10.2 log10 K,1.66 log10 K,CCCCCCCCCCCCCCCCCCCO,
4 log10 K,3.57 log10 K,Cc1ccnc(C)c1,

"log K of transfer, gas to solvent ([1]; Hexadecane, 25 C)","log K of transfer, gas to solvent ([1]; Water, 25 C)",Compound,other results
3.68 log10 K,3.06 log10 K,CCCCC(C)(C)O,
1.59 log10 K,1.54 log10 K,CCOC,
3.24 log10 K,4.03 log10 K,OC1CCCC1,"log K of transfer, gas to solvent ([1]; Propanone, 25 C): 4.6 log10 K"
3.23 log10 K,3.15 log10 K,CC1CCNCC1,
6.12 log10 K,2.5 log10 K,CCCCCCCCCCCO,"log K of transfer, gas to solvent ([1]; Decan-1-ol, 25 C): 7.53 log10 K"
4.4 log10 K,4.02 log10 K,OC1CCCCCC1,
3.23 log10 K,3.15 log10 K,CC1CCCCN1 (centres unmarked),
3.04 log10 K,-1.99 log10 K,CCCC(C)CC (centres unmarked),
4.6 log10 K,2.68 log10 K,CCCCCCCCN,
4.8 log10 K,-1.44 log10 K,CCCCC1CCCCC1,
3.86 log10 K,2.43 log10 K,COC1CCCCC1,
3.84 log10 K,4.54 log10 K,Oc1ccc(F)cc1,"log K of transfer, gas to solvent ([1]; 1,2-Dichloroethane, 25 C): 5.25 log10 K; log K of transfer, gas to solvent ([1]; CCl4, 25 C): 4.28 log10 K"
4.04 log10 K,3.54 log10 K,Cc1cccnc1C,
3.57 log10 K,-2.15 log10 K,CC(C)CCC(C)(C)C,
3.51 log10 K,-2.18 log10 K,CCCCC(C)CC (centres unmarked),
4.33 log10 K,-0.63 log10 K,C1CCCCCCC1,
3.23 log10 K,3.16 log10 K,CC1CCCNC1 (centres unmarked),
2.86 log10 K,6.57 log10 K,CNC=O,"log K of transfer, gas to solvent ([1]; Propanone, 25 C): 5.39 log10 K"
3.27 log10 K,2.41 log10 K,CCCC(=O)CC,
4.31 log10 K,3.83 log10 K,Cc1ccncc1C,
3.64 log10 K,0.72 log10 K,Fc1ccccc1Cl,

Compound,"log K of transfer, gas to solvent ([1]; Hexadecane, 25 C)","log K of transfer, gas to solvent ([1]; Water, 25 C)",other results
C1CCSC1,3.06 log10 K,1.66 log10 K,
N,0.319 log10 K,3.19 log10 K,"log K of transfer, gas to solvent ([1]; 2-Methylpropan-1-ol, 25 C): 1.86 log10 K; log K of transfer, gas to solvent ([1]; Butan-1-ol, 25 C): 1.76 log10 K; log K of transfer, gas to solvent ([1]; Butanone, 25 C): 1.42 log10 K; log K of transfer, gas to solvent ([1]; CCl4, 25 C): 0.79 log10 K; log K of transfer, gas to solvent ([1]; Chlorobenzene, 25 C): 0.999 log10 K; log K of transfer, gas to solvent ([1]; Chloroform, 25 C): 1.77 log10 K; log K of transfer, gas to solvent ([1]; Ethanol, 25 C): 2.01 log10 K; log K of transfer, gas to solvent ([1]; Methanol, 25 C): 2.26 log10 K; log K of transfer, gas to solvent ([1]; Propan-1-ol, 25 C): 1.76 log10 K; log K of transfer, gas to solvent ([1]; Propan-2-ol, 25 C): 1.74 log10 K; log K of transfer, gas to solvent ([1]; Propanone, 25 C): 1.48 log10 K"
Cc1ccncc1,3.64 log10 K,3.62 log10 K,"log K of transfer, gas to solvent ([1]; CCl4, 25 C): 4.46 log10 K; log K of transfer, water to solvent ([2]; CCl4, 25 C): 0.84 log10 K; log K of transfer, water to solvent ([2]; Hexadecane, 25 C): 0.02 log10 K"
Fc1ccccc1,2.79 log10 K,0.59 log10 K,"log K of transfer, gas to solvent ([1]; CCl4, 25 C): 2.67 log10 K; log K of transfer, gas to solvent ([1]; Chloroform, 25 C): 3.44 log10 K; log K of transfer, gas to solvent ([1]; Cyclohexane, 25 C): 2.81 log10 K; log K of transfer, gas to solvent ([1]; Hexane, 25 C): 3.04 log10 K; log K of transfer, gas to solvent ([1]; Tetrahydrofuran, 25 C): 3.62 log10 K; log K of transfer, water to solvent ([2]; CCl4, 25 C): 2.08 log10 K; log K of transfer, water to solvent ([2]; Chloroform, 25 C): 2.85 log10 K; log K of transfer, water to solvent ([2]; Cyclohexane, 25 C): 2.22 log10 K; log K of transfer, water to solvent ([2]; Hexadecane, 25 C): 2.2 log10 K; log K of transfer, water to solvent ([2]; Hexane, 25 C): 2.45 log10 K; log K of transfer, water to solvent ([2]; Tetrahydrofuran, 25 C): 3.03 log10 K"
OC1CCCCCCC1,5.05 log10 K,3.81 log10 K,
C[C@@H]1CCCC[C@@H]1C,3.85 log10 K,-1.17 log10 K,
CC(=O)CC(C)C,3.09 log10 K,2.24 log10 K,
C=CCCCCCCCCC,5.02 log10 K,-1.75 log10 K,
CCCF,1.25 log10 K,-0.24 log10 K,
CCF,0.751 log10 K,-0.3 log10 K,"log K of transfer, gas to solvent ([1]; Tetrahydrofuran, 25 C): 1.31 log10 K"
